PubChem BioAssay (NCI)
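Test compounds were applied to cells in 96-well plates for 48 hours at 5 doses. At the GI50, growth is halved. At the TGI there is no net growth.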

Key:
Test in all cases: inhibition of tumour cell growth, NCI panel, 48 h
HCC-2998 colon = test system: HCC-2998 colon
RXF 393 renal = test system: RXF 393 renal
MDA-MB-435 = test system: MDA-MB-435
RPMI-8226 leukemia = test system: RPMI-8226 leukemia
SK-MEL-5 melanoma = test system: SK-MEL-5 melanoma
IGROV1 ovarian = test system: IGROV1 ovarian
SNB-75 CNS = test system: SNB-75 CNS
CCRF-CEM leukemia = test system: CCRF-CEM leukemia
T-47D breast = test system: T-47D breast
NCI/ADR-RES ovarian = test system: NCI/ADR-RES ovarian
UACC-257 melanoma = test system: UACC-257 melanoma
OVCAR-3 ovarian = test system: OVCAR-3 ovarian
SK-OV-3 ovarian = test system: SK-OV-3 ovarian
786-0 renal = test system: 786-0 renal
NCI-H226 lung = test system: NCI-H226 lung
A498 renal = test system: A498 renal
HCT-15 colon = test system: HCT-15 colon
SW-620 colon = test system: SW-620 colon
COLO 205 colon = test system: COLO 205 colon
NCI-H23 lung = test system: NCI-H23 lung
SF-268 CNS = test system: SF-268 CNS
K-562 leukemia = test system: K-562 leukemia
BT-549 breast = test system: BT-549 breast
HS 578T breast = test system: HS 578T breast
PC-3 prostate = test system: PC-3 prostate
MDA-MB-231 breast = test system: MDA-MB-231 breast
TK-10 renal = test system: TK-10 renal
MALME-3M melanoma = test system: MALME-3M melanoma
NCI-H522 lung = test system: NCI-H522 lung
EKVX NSCLC = test system: EKVX NSCLC
MCF7 breast = test system: MCF7 breast
HL-60(TB) leukemia = test system: HL-60(TB) leukemia
HT29 colon = test system: HT29 colon
SR leukemia = test system: SR leukemia
SNB-19 CNS = test system: SNB-19 CNS
U251 CNS = test system: U251 CNS
UO-31 renal = test system: UO-31 renal
CAKI-1 renal = test system: CAKI-1 renal
LOX IMVI melanoma = test system: LOX IMVI melanoma
OVCAR-8 ovarian = test system: OVCAR-8 ovarian
MOLT-4 leukemia = test system: MOLT-4 leukemia
SK-MEL-28 melanoma = test system: SK-MEL-28 melanoma
A549 NSCLC = test system: A549 NSCLC
SN12C renal = test system: SN12C renal
SK-MEL-2 melanoma = test system: SK-MEL-2 melanoma
NCI-H460 lung = test system: NCI-H460 lung
ACHN renal = test system: ACHN renal
KM12 colon = test system: KM12 colon
UACC-62 melanoma = test system: UACC-62 melanoma
HCT-116 colon = test system: HCT-116 colon
SF-539 CNS = test system: SF-539 CNS
OVCAR-4 ovarian = test system: OVCAR-4 ovarian
HOP-62 NSCLC = test system: HOP-62 NSCLC
DU-145 prostate = test system: DU-145 prostate
SF-295 CNS = test system: SF-295 CNS
HOP-92 NSCLC = test system: HOP-92 NSCLC
OVCAR-5 ovarian = test system: OVCAR-5 ovarian

CCN(CC)c1ccc(/C=N/NC(=O)c2ccc(S(N)(=O)=O)cc2)cc1
GI50 (HCC-2998 colon): 612 nM
TGI (HCC-2998 colon): 51000 nM
GI50 (RXF 393 renal): 1100 nM
TGI (RXF 393 renal): 3800 nM
GI50 (MDA-MB-435): 975 nM
TGI (MDA-MB-435): > 100000 nM
GI50 (RPMI-8226 leukemia): 2840 nM
TGI (RPMI-8226 leukemia): 13700 nM
GI50 (SK-MEL-5 melanoma): 1420 nM
TGI (SK-MEL-5 melanoma): > 100000 nM
GI50 (IGROV1 ovarian): 690 nM
TGI (IGROV1 ovarian): > 100000 nM
GI50 (SNB-75 CNS): 496 nM
TGI (SNB-75 CNS): 5910 nM
GI50 (CCRF-CEM leukemia): 178 nM
TGI (CCRF-CEM leukemia): > 100000 nM
GI50 (T-47D breast): 686 nM
TGI (T-47D breast): > 72300 nM
GI50 (NCI/ADR-RES ovarian): 3110 nM
TGI (NCI/ADR-RES ovarian): > 100000 nM
GI50 (UACC-257 melanoma): 869 nM
TGI (UACC-257 melanoma): 7900 nM
GI50 (OVCAR-3 ovarian): 244 nM
TGI (OVCAR-3 ovarian): > 100000 nM
GI50 (SK-OV-3 ovarian): 533 nM
TGI (SK-OV-3 ovarian): 21400 nM
GI50 (786-0 renal): 610 nM
TGI (786-0 renal): 4670 nM
GI50 (NCI-H226 lung): 1390 nM
TGI (NCI-H226 lung): 23900 nM
GI50 (A498 renal): 4260 nM
TGI (A498 renal): 29300 nM
GI50 (HCT-15 colon): 419 nM
TGI (HCT-15 colon): 44200 nM
GI50 (SW-620 colon): 597 nM
TGI (SW-620 colon): > 100000 nM
GI50 (COLO 205 colon): 437 nM
TGI (COLO 205 colon): 19000 nM
GI50 (NCI-H23 lung): 2110 nM
TGI (NCI-H23 lung): > 100000 nM
GI50 (SF-268 CNS): 328 nM
TGI (SF-268 CNS): 25800 nM
GI50 (K-562 leukemia): 479 nM
TGI (K-562 leukemia): > 100000 nM
GI50 (BT-549 breast): 1000 nM
TGI (BT-549 breast): 8290 nM
GI50 (HS 578T breast): 2370 nM
TGI (HS 578T breast): 40800 nM
GI50 (PC-3 prostate): 469 nM
TGI (PC-3 prostate): 73400 nM
GI50 (MDA-MB-231 breast): 525 nM
TGI (MDA-MB-231 breast): 64300 nM
GI50 (TK-10 renal): 1760 nM
TGI (TK-10 renal): 47800 nM
GI50 (MALME-3M melanoma): 856 nM
TGI (MALME-3M melanoma): 11300 nM
GI50 (NCI-H522 lung): 403 nM
TGI (NCI-H522 lung): 23200 nM
GI50 (EKVX NSCLC): 782 nM
TGI (EKVX NSCLC): > 82100 nM
GI50 (MCF7 breast): 488 nM
TGI (MCF7 breast): > 100000 nM
GI50 (HL-60(TB) leukemia): 255 nM
TGI (HL-60(TB) leukemia): 4380 nM
GI50 (HT29 colon): 614 nM
TGI (HT29 colon): 17300 nM
GI50 (SR leukemia): 83.9 nM
TGI (SR leukemia): 3070 nM
GI50 (SNB-19 CNS): 1120 nM
TGI (SNB-19 CNS): > 64800 nM
GI50 (U251 CNS): 268 nM
TGI (U251 CNS): 18700 nM
GI50 (UO-31 renal): 487 nM
TGI (UO-31 renal): 24000 nM
GI50 (CAKI-1 renal): 488 nM
TGI (CAKI-1 renal): 25800 nM
GI50 (LOX IMVI melanoma): 271 nM
TGI (LOX IMVI melanoma): 4510 nM
GI50 (OVCAR-8 ovarian): 406 nM
TGI (OVCAR-8 ovarian): > 52600 nM
GI50 (MOLT-4 leukemia): 373 nM
TGI (MOLT-4 leukemia): 15000 nM
GI50 (SK-MEL-28 melanoma): 495 nM
TGI (SK-MEL-28 melanoma): > 67400 nM
GI50 (A549 NSCLC): 1780 nM
TGI (A549 NSCLC): > 100000 nM
GI50 (SN12C renal): 957 nM
TGI (SN12C renal): > 100000 nM
GI50 (SK-MEL-2 melanoma): 3170 nM
TGI (SK-MEL-2 melanoma): 20700 nM
GI50 (NCI-H460 lung): 510 nM
TGI (NCI-H460 lung): 10400 nM
GI50 (ACHN renal): 605 nM
TGI (ACHN renal): 22300 nM
GI50 (KM12 colon): 811 nM
TGI (KM12 colon): > 63300 nM
GI50 (UACC-62 melanoma): 499 nM
TGI (UACC-62 melanoma): 8780 nM
GI50 (HCT-116 colon): 324 nM
TGI (HCT-116 colon): 19200 nM
GI50 (SF-539 CNS): 488 nM
TGI (SF-539 CNS): 8110 nM
GI50 (OVCAR-4 ovarian): 397 nM
TGI (OVCAR-4 ovarian): > 77600 nM
GI50 (HOP-62 NSCLC): 338 nM
TGI (HOP-62 NSCLC): 11900 nM
GI50 (DU-145 prostate): 828 nM
TGI (DU-145 prostate): > 58600 nM
GI50 (SF-295 CNS): 739 nM
TGI (SF-295 CNS): 18300 nM
GI50 (HOP-92 NSCLC): 430 nM
TGI (HOP-92 NSCLC): 14600 nM
GI50 (OVCAR-5 ovarian): 2580 nM
TGI (OVCAR-5 ovarian): > 100000 nM
